One compound from ChEMBL document CHEMBL1165894, “Synthesis and pharmacological characterization of a novel nitric oxide-releasing diclofenac derivative containing a benzofuroxan moiety” (Eur J Med Chem, 2010) can be followed below.

The source made the active and inactive calls. The rule behind the calls is not given here.

Data set [1] relates to Blood. The data set can be described thus: Antiinflammatory activity in human whole blood assessed as inhibition of LPS-induced PGE2 production at 1 to 100 uM after 18 hrs by ELISA. Type of data set: functional, tissue-based.
In data set [2] the test system is Rattus norvegicus. Briefly: Antiinflammatory activity in Wistar rat assessed as reduction in carrageenan-induced paw edema at 100 mg/kg, ip after 0.5 to 4 hrs. Type of data set: functional, organism-based. The arrangement: dose 100 mg/kg. For orientation: In the carrageenan paw model, swelling and tenderness develop within hours.
Data set [3] relates to Rattus norvegicus. The data set can be described thus: Toxicity in Wistar rat assessed as reduction in PGE2 level in gastric mucosa at 30 mg/kg, po. Type of data set: organism-based. The arrangement: dose 30 mg/kg, route oral. The note with it: in vivo.
Data set [4] can be described thus: Induction of NO release in phosphate buffer containing L-cysteine at pH 7.4 assessed as nitrite level by Griess assay. Type of data set: physicochemical. (In general: Nitrite, measured by Griess reagent, commonly stands in for NO production.)
Data set [5] concerns Blood. Briefly: Antiinflammatory activity in human whole blood assessed as inhibition of LPS-induced production at 0.01 to 100 uM after 18 hrs by ELISA. For orientation: An ELISA detects its analyte on a solid surface through an enzyme-linked reagent.

Take `O=C(Cc1ccccc1Nc1c(Cl)cccc1Cl)OCc1ccc2no[n+]([O-])c2c1`: the result in data set [1], in data set [2] and in data set [5] was Active. Also, the values for the Activity entry in data set [3] and in data set [4] were “Toxic” and 372 nM, respectively.
